Consider one molecule from PMC2939063, “In Vitro and In Vivo Studies of the Trypanocidal Properties of WRR-483 against Trypanosoma cruzi” (PLoS Neglected Tropical Diseases, 2010).

“And” between values parts separate entries of the source, which are not always exact repeats. Equal values may be shown once.

What is called IC50 is the point on the concentration scale where inhibition reaches its midpoint. Read a low IC50 as greater potency. A word on the Vd: it is the apparent volume that relates the amount in the body to the concentration in plasma or blood. A high value points to wide distribution into tissue. What is called clearance is the volume of plasma or blood freed of the substance per unit of time. A high value points to a high capacity for elimination. What is called half-life is the time in which the quantity being followed falls by half. A word on the bioavailability: it is the share of a dose that reaches the circulation, judged against a reference dose that is usually intravenous. By NOAEL is commonly meant the highest dose or exposure tested at which no adverse effect was seen.

Data set [1] has as its target T1, Cruzain (Trypanosoma cruzi, UniProt P25779).
T1 construct: made in house
The experiment in a line: Cruzain enzyme assay (acetate buffer pH 5.5, Z-Phe-Arg-AMC). It counts as biochemical. As to conditions: 100 mM sodium acetate pH 5.5, 5 mM DTT. As to the method:
Cruzain[27],[28], rhodesain [29], and tbcatB [30] were recombinantly expressed as described previously. TbcatB assays were performed as described previously.[31] Cruzain (2 nM) or rhodesain (3 nM) was incubated with 0.5 to 10 µM inhibitor concentration in 100 mM sodium acetate at pH 5.5, containing 5 mM DTT (buffer A) for 5 min at room temperature. Then buffer A containing Z-Phe-Arg-AMC (Bachem, K M = 1 µM) was added to enzyme inhibitor to give 20 µM substrate concentration in 200 µL, and the increase in fluorescence (excitation at 355 nm and emission at 460 nm) was followed with an automated microtiter plate spectrofluorometer (Molecular Devices, Flex station). Inhibitor stock solutions were prepared at 20 mM in DMSO, and serial dilutions were made in DMSO (0.7% DMSO in assay). Controls were performed using enzyme alone and enzyme with DMSO. IC50 values were determined graphically using inhibitor concentrations in the linear portion of a plot of inhibition versus log[I] […]
Inhibitor dilutions which produce simple exponential progress curves over a wide range of k obs, were used to determine kinetic parameters. The value of k obs, the rate constant for loss of enzyme activity, was determined from an equation for pseudo first order dynamics using Prism 4.0 (GraphPad). When k obs varied linearly with inhibitor concentration, k ass was determined by linear regression analysis. […]

Data set [2] addresses T1, Cruzain. Kind of data set: biochemical. It counts as biochemical. The procedure: For pH dependence studies, cruzain was tested at 4 nM in 5 µM Z-Phe-Arg-AMC in 0.15 M citrate phosphate buffer at pH 5.5 and pH 8.0 with 5 mM DTT, and 0.01% Triton-X 100. Enzyme was added to wells of a 96-well microtiter plate containing substrate and inhibitor diluted in DMSO (0.5% final concentration), or DMSO control. Final inhibitor concentration ranged from 0.01 µM to 10 µM. Experiments were done in triplicate. Assays were run at 25°C in an automated microtiter plate spectrofluorometer, with robotic delivery of enzyme and readings every 1.52 seconds throughout the assay, before and after enzyme addition.
Inhibitor dilutions which produce simple exponential progress curves over a wide range of k obs, were used to determine kinetic parameters. The value of k obs, the rate constant for loss of enzyme activity, was determined from an equation for pseudo first order dynamics using Prism 4.0 (GraphPad). When k obs varied linearly with inhibitor concentration, k ass was determined by linear regression analysis. If the variation was hyperbolic, indicating saturation inhibition kinetics, k inact and K i were determined from an equation describing a two-step irreversible inhibitor mechanism [k obs = k inact [I]o/([I]o+Ki* (1+[S]o/K M))] and non-linear regression analysis Prism 4.0.[32] All values were corrected for substrate concentration.

Data set [3] concerns T. cruzi infected J774 macrophages. The experiment in a line: T. cruzi growth inhibition in infected J774 macrophages (cell survival). As to conditions: 10 µM inhibitor every 48 h until Day 27, experiment terminated on Day 47, untreated control 6 days. The class given is cell-based, Trypanosoma cruzi CA-I/72. As to the method: CA-I/72 T. cruzi parasites were isolated from a chronic Chagasic patient, cloned, and maintained as previously described.[33]
For growth inhibition studies, J774 macrophages cultured in RPMI-1640 medium with 5% heat inactivated fetal calf serum (FCS) were irradiated (9000 rad) to arrest the cell cycle and plated onto 12-well tissue culture plates for 24 h at 37°C. After infection with 10^5 T. cruzi trypomastigotes per well for 2 hours, monolayers were washed with RPMI medium and treated with the inhibitors at 10 µM in RPMI medium (triplicate wells per inhibitor). Inhibitor stocks were made to 10 mM in DMSO and diluted prior to use. All assays include untreated, K11777-treated, and uninfected macrophage controls. Fresh medium with or without inhibitor was replaced every 48 h and inhibitor efficacy was monitored daily. Survival time was defined as the time before the cell monolayer was destroyed by the infection. Under these culture conditions, T. cruzi completed the intracellular cycle in 6 days in untreated controls. […] Macrophages were subsequently cultured in normal medium for up to 40 days to elucidate if the effective inhibitors were trypanocidal (cure host macrophages) or trypanostatic (delay intracellular cycle of the parasite).

In the next data set the target is T2, Cathepsin K (Homo sapiens, UniProt P43235).
T2 construct: Reaction Biology Corp (screening service)
T2 sequence (P43235 115-329): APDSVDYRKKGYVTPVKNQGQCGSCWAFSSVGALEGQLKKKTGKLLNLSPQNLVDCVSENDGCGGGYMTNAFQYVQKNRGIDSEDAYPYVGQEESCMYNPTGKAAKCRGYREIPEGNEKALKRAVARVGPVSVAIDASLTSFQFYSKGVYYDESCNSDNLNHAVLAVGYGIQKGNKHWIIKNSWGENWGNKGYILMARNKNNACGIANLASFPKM
The experiment in a line: Protease inhibition profiling (Reaction Biology Corp): Cathepsin K. It counts as biochemical.

A further data set deals with T3, Cathepsin S (Homo sapiens, UniProt P25774).
T3 construct: Reaction Biology Corp (screening service)
T3 sequence (P25774 115-331, species assumed): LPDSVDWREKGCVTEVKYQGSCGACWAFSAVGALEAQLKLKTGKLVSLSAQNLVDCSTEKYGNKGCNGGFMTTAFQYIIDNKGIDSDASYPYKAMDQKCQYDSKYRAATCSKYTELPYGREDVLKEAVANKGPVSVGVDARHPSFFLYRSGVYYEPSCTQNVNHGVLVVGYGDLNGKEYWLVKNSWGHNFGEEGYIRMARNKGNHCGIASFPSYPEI
The experiment in a line: Protease inhibition profiling (Reaction Biology Corp): Cathepsin S. It counts as biochemical.

In the next data set the target is T4, Papain (Carica papaya, UniProt P00784).
T4 construct: Reaction Biology Corp (screening service)
T4 sequence (P00784 134-345): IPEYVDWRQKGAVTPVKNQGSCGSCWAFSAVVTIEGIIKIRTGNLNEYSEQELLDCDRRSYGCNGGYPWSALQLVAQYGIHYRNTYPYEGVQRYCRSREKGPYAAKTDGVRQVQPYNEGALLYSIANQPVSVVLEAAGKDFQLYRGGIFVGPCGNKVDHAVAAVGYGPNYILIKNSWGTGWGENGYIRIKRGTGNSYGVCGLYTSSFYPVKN
The experiment in a line: Protease inhibition profiling (Reaction Biology Corp): Papain. It counts as biochemical.

Data set [4] is described as follows: Pharmacokinetic study (SRI international). As to conditions: in vivo. The source says: (§1) In this study, we have identified WRR-483, as an effective agent to treat acute Chagas' disease in a murine model. […] The crystal structure of WRR-483 complexed to cruzain was solved and established the binding mode of the inhibitor to the enzyme. This structure was highlighted by the formation of a salt bridge between the guanidine moiety of the inhibitor and Glu208, but in a different conformation when compared to another structure of cruzain bound to a different arginine-containing inhibitor. […] The no observed adverse effect level (NOAEL) is higher than 100 mg/kg. […] Further studies to understand the precise mechanism of trypanocidal action of WRR-483 and design of analogs with improved bioavailability are currently underway.

Data set [5] is described as follows: Toxicology study (SRI international). As to conditions: in vivo; read-out: no observed adverse effect level (NOAEL).
From the text: as §1

Another data set concerns Entamoeba histolytica. As to conditions: human colonic xenograft model; cited from earlier work. (Xenograft models place foreign cells or tissue in a host animal.)
Where [6] appears, read: pH 5.5, citrate phosphate buffer.
The mark [7] stands for this setting: pH 8.0, citrate phosphate buffer.

T1 sequence (P25779 123-337 limits assumed): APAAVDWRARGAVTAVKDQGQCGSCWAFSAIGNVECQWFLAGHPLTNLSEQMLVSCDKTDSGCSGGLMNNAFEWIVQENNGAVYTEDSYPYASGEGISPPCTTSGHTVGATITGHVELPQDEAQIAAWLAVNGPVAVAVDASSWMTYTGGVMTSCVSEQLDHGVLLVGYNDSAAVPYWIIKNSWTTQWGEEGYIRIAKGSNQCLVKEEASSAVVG

`CN1CCN(C(=O)N[C@@H](CCCNC(=N)N)C(=O)N[C@H](/C=C/S(=O)(=O)c2ccccc2)CCc2ccccc2)CC1` [WRR-483]: the “k obs/[I] at 1 µM, Cruzain” value at Cruzain [1] is 4,800 s^-1 M^-1 and 4,800±480 s^-1 M^-1. On Cruzain [2] (citrate phosphate buffer), the “improvement of cruzain IC50 at pH 8.0 than at pH 5.5” value is around 10 fold and the “increase in the second-order rate of inactivation of cruzain, pH 8.0 vs pH 5.5” value is on record as 4 fold. At Cruzain [2] (setting [6]), the IC50 was 70 ± 30 nM and the “k inact/K i, cruzain” value was 14,000±240 s^-1 M^-1. Also, on Cruzain [2] (setting [7]), the IC50 was 8 ± 2 nM and the “k inact/K i, cruzain” value is reported as 62,000±350 s^-1 M^-1. For the same molecule, the “T. cruzi infected cell survival” value in data set [3] is 47 days. For the same molecule, the “IC50, Cathepsin K” value at Cathepsin K is given as “No inhibition”. This molecule also registered an IC50 on Cathepsin S of 1.4 ± 0.01 nM. The same molecule showed an IC50 against Papain of 373 ± 44 nM. In [4] (10 mg dose iv), the Vd came to 15.1 L/kg, the clearance is 27.5 mL/min/kg and the half-life is 6.4 h. The bioavailability in data set [4] (oral, read-out: oral bioavailability %F) is below 1%. In addition, the NOAEL in data set [5] is above 100 mg/kg. Besides, the “reduction of amebic invasion” value with Entamoeba histolytica is given as 95%.
